Assay results reported in patent US8541476B2, “Compounds for treatment of malignant tumors” (The Trustees of the University of Pennsylvania, priority 2007, dated 2013).

What was measured:
[1] = test system: HT-29 colorectal cancer cells; assay: Clonogenic survival assay, HT-29 cells; assay type: cell-based, human
[2] = test system: A549 non-small cell lung cancer cells; assay: Clonogenic survival assay, A549 cells; assay type: cell-based, human; details: A549, 5 μM for 12 hours prior to IR
Description: Clonogenic survival assays were performed as described by Koumenis, et al., 2002, (Mol. Cell Biol. 22:7405-16), which reference is incorporated herein in its entirety. U251, HT-29, or A549 cells were plated at different densities in triplicate, treated with NS-123 or DMSO (alone) and irradiated 4, 8, or 12 hours later with a range of doses using ^137Cs γ-rays at a dose rate of ˜4 Gy/minute (min). One hour after irradiation, the medium was replaced with fresh medium without NS-123 or DMSO. The cells were fixed 7-14 days after IR and stained with crystal violet. Colonies greater than 50 cells were then counted and normalized against the non-irradiated controls for each treatment. […] NHA cells were plated in 24-well plates in quadruplicate at equal density, treated with equal volumes of NS-123 or DMSO (alone) and irradiated as described above. One hour after irradiation, the medium was replaced with fresh ABM. Five days later, the MTS assay was used to evaluate cell survival as above.
To exclude the possibility that the radiosensitizing effect of NS-123 was specific to a single cell line, the radiosensitizing effect of NS-123 was tested on additional cell lines of different tissue origin. Clonogenic survival assays were performed. […]

[3] = test system: U251 cells transplanted into ZF embryos; assay: U251 xenograft ZF model (U251-RFP fluorescence); assay type: in vivo, Danio rerio
Description: ZF were raised in accordance with previously established protocols (McAleer, et al., 2005, J. Radiat. Oncol. Biol. Phys. 61:10-3) at the University of Pennsylvania School of Medicine. Embryos were maintained at 30° C. after transplantation procedures. The age of embryos is indicated as the hours post-fertilization (hpf) and days post-fertilization (dpf) for all experimental data shown. Embryos were either irradiated with 10 Gy or sham-irradiation as previously described (McAleer, et al., 2005, J. Radiat. Oncol. Biol. Phys. 61:10-3) immediately after photography at 24 hpf. Selected embryos were incubated with NS-123 at a concentration of 30 μM for 14 hours before either irradiation or sham-irradiation.
U251 cells were stably transfected with a RFP construct (pDsRed2-C 1; Clontech, Palo Alto, Calif.). Using a Nanoject II microinjector (Drummond Scientific, Broomall, Pa.) 1-100 cells were transplanted into each ZF embryo still in the chorion, from the high stage of their development (approximately 3.5 hpf) to the oblong-sphere stage (approximately 4.5 hpf). The transplantation site was localized either to the blastodisc approximately halfway between the margin and the animal pole or the center of the embryonic yolk sac. Morphological analysis was performed as previously described (Geiger, et al., 2006, Cancer Res. 66:8172-81). Transplanted embryos were examined under a 100× PlanNeofluor objective mounted on a Nikon TE-200 epifluorescence microscope. Images of embryos bearing RFP-positive cells were captured with a Hammamatsu CCD camera controlled with IP LabSpectrum v2.0.1 software (Scanalytics, Inc., Rockville, Md.). Image analysis and pseudocoloring was performed with Kodak Molecular Imaging software v. 4.0.5 (Kodak, Rochester, N.Y.). […]
Human cancer cells can be transplanted into ZF embryos through microinjection (Lee et al., 2005, Dev. Dyn. […]:1560-1570; Haldi et al., 2006, Angiogenesis 9:139-151; Mizgireuv et al., 2006, Cancer Res. 66:3120-3125). […] The embryos were subsequently examined for fluorescence on sequential days following irradiation.

[4] = test system: γ-H2AX, P-CHK2, P-ATM, P-DNA-PKcs in U251 cells; assay: Immunoblotting of dsDNA damage-dependent signaling after IR; assay type: cell-based, human; details: U251, 30 μM 4 hours prior to IR, 6 hours after IR
Description: Following treatments, whole cell and nuclear extracts were prepared. Equal lysate volumes were loaded on 15% and 12% SDS-PAGE gels to assay for γ-H2AX and P-CHK2 proteins, respectively. To assay for P-ATM and P-DNA-PKcs protein, 30-50 μg of nuclear protein were diluted with an equal volume of 2×SDS and resolved with 6% SDS-PAGE gels. Proteins were transferred to polyvinylidene difluoride (PVDF) membranes and then incubated with either anti-γ-H2AX antibody (1:5000; Upstate, Charlottesville, Va.), anti-P-CHK2 antibody (1:1000; Cell Signaling, Beverly, Mass.), anti-phospho-ATM (pSer^1981) antibody (1:300 Calbiomchem, San Diego, Calif.), or anti-phospho-DNA-PKcs (T2609) antibody (1:500; Abcam, Cambridge, Mass.). To confirm equivalent loading and protein transfer, membranes were probed with mouse anti-human β-actin monoclonal antibody (Sigma) or anti-DNA-PKcs monoclonal antibody (25-4 at 1:5000; NeoMarkers, Fremont, Calif.). All membranes were then incubated with horseradish peroxidase-conjugated anti-mouse or anti-rabbit secondary antibodies (Santa Cruz Biotechnology). Immunoreactive bands were detected using ECL Plus chemiluminescence (Amersham Biosciences).
The levels of γ-H2AX, P-CHK2, P-ATM, and P-DNA-PKcs were assayed in U251 cells by immunoblotting at various time points after IR. Cells were treated with DMSO (control) or 30 μM NS-123 for 4 hours prior to IR. […]

## CCC(=O)c1ccc(Br)c([N+](=O)[O-])c1 [NS-123, 4′-bromo-3′-nitropropiophenone]
[1]; HT-29, 5 μM for 12 hours prior to IR
  DER at 0.5 survival: 3.0
[1]; HT-29, pretreatment with NS-123
  DER at 0.1 survival: 3.0
[2]
  DER at 0.1 survival: 1.4
[3]; NS-123 + 10 Gy IR, 5 dpf
  surviving U251 cells, irradiated in the presence of drug: markedly fewer cells
[3]; NS-123 + IR, 10 embryos/condition/experiment
  relative fluorescence versus irradiated-only control: faster decrease in luminescence
[3]; NS-123 alone, 3 or 5 dpf
  size of U251 xenografts, drug alone: did not have any significant effect on the size
[4]
  levels of γ-H2AX, P-CHK2, P-DNA-PKcs and P-ATM: substantially higher levels
